No end group written: not given here.
Columns and labels:
P. syringae = test: Disease suppression assay, bacterial leaf spot in tomato; format: in vivo, Pseudomonas syringae on tomato leaves; details: 6 days after inoculation
Experimental: (§1) The synthetic LsGRP1^C solutions of 2.5, 0.25 or 0.025 mg/ml were used. LsGRP1^C solution was dropped onto the surface of cabbage leaves. Meanwhile 5 μl spore suspension of A. brassicicola (2×10^5 conidia/ml), a fungal pathogen of cabbage black spot, was mixed with LsGRP1^C solution. In addition, fungal spore suspension was deposited before or after LsGRP1^C application. On the other hand, synthetic LsGRP1^C solution was dropped onto strawberry flowers, and then mixed with spore suspension of B. cinerea (2×10^5 conidia/ml). Similarly, synthetic LsGRP1^C solution was dropped onto tomato leaves, and then mixed with bacterial suspension of P. syringae (10^7 CFU/ml). Sterile water was used instead of LsGRP1^C solution as a control. Lesion development was examined visually.
LsGRP1^C solution (10 μl each) was dropped onto wounded tissues of tomato leaves, mixed with 10 μl bacterial suspension (10^7 CFU/ml) of pathogenic P. syringae, and then lesion development was examined 6 days after bacterial inoculation.

X. campestris XCP3 = format: cell-based, Xanthomonas campestris
Experimental: (§2) (A) Bacterial growth inhibited by LsGRP1-derived peptides. The bacterial suspension with an OD600 of 0.15 was treated with 2.5 mg/ml peptide solution for 90 min, and the CFUs in each peptide sample were measured at 20-24 h post treatment by serial-dilution plating Inhibition of bacterial growth (%)=[(CFUs in water treatment−CFUs in peptide treatment)/CFUs in water treatment]×100%. (B) Spore germination of plant fungal pathogens inhibited by LsGRP1-derived peptides. Fungal spores with a concentration of 1×10^5 spores/ml were treated with 2.5 mg/ml peptide for 16-20 h before the observation of spore germination under light microscope. Inhibition of fungal spore germination (%)=[(Number of spores germinating in water−Number of spores germinating in peptide solution)/Number of spores germinating in water]×100%.
(§3) The bacterial strains used in this invention included Agrobacterium tumefaciens C58C^1 (Van Larebeke et al., 1974), Bacillus subtilis 28-4, Escherichia coli DH5α (Invitrogen), Dickeya chrysanthemi TA1, Pseudomonas syringae pv. syringae 61 (Huang et al., 1988), and Xanthomonas campestris XCP3. […]
(§4) The antibacterial and antifungal activities of these peptides were determined by measuring the inhibition rate of bacterial growth and fungal spore germination. […] After incubation for 20-24 h, the colony-forming units (CFUs) in each peptide-treated sample were quantified. […]

B. elliptica B061 = format: cell-based, Botrytis elliptica; details: Inhibition of fungal spore germination at 5 × 10^4 spores/ml
Experimental: as §2, with “Fungal spores with a concentration of 1×10^5 spores/ml were treated with 2.5 mg/ml peptide for 16-20 h before the observation of spore germination under light microscope.” left out
(§5) The fungi used in this study included Alternaria brassicicola Ac1, Botrytis cinerea B-134, Botrytis elliptica B061, Colletotrichum acutatum HL1, and Colletotrichum gleosporioides MT1. […]
as §4

[1] = system: P. syringae pv. syringae 61; format: cell-based, Pseudomonas syringae pv. syringae; details: Inhibition of bacterial growth (OD600 = 0.15)
Experimental: as §2, §3, §4

[2] = system: spores and hyphae of A. brassicicola Ac1, B. cinerea B-134, B. elliptica B061 and C. acutatum HL1; test: DAPI staining of fungal spores and hyphae (chromatin condensation); format: cell-based; details: 50 μg/ml; spores 2 h, hyphae 16 h
Experimental: (§6) The fungal spores (A) and hyphae (B) were treated with 50 μg/ml LsGRP1^C for 2 h and 16 h, respectively. Then membrane permeability, chromatin condensation and reactive oxygen species accumulation of treated spores and hyphae were assayed by staining with SYTOX Green, DAPI and H2DCFDA, respectively. Sterile deionized water was used instead of LsGRP1^C as a control. Bar=20 μm (A) or 50 μm (B).
Fungal spore and hyphae were treated with 50 μg/ml peptide solution for 2 h and 16 h, respectively. Then the fungal cells were stained with 4′,6′-diamidino-2-phenylindole (DAPI) at a final concentration of 1 μg/ml in the dark for 10 min before observation under Leica DMIL florescent microscope equipped with a Leica A filter set (BP340-380 nm, DM 400 nm, LP425 nm). Sterile deionized water was used instead of the peptide solution as a control.

D. chrysanthemi TA1 = format: cell-based, Dickeya chrysanthemi; details: 2500 μg/ml peptide, 90 min, CFUs at 20-24 h
Experimental: as §2, §3, §4

A. brassicicola Ac1 = format: cell-based, Alternaria brassicicola; details: Inhibition of fungal spore germination at 5 × 10^4 spores/ml
Experimental: as §2, §5, §4

B. cinerea B-134 = format: cell-based, Botrytis cinerea
Experimental: as §2, §5, §4

[3] = system: all assayed bacterial species (six bacterial species); format: cell-based
Experimental: as §2, §3, §4

A. tumefaciens C58C^1 = format: cell-based, Agrobacterium tumefaciens
Experimental: as §2, §3, §4

[4] = system: A. brassicicola Ac1, B. cinerea B-134, B. elliptica B061 and C. acutatum HL1; test: H2DCFDA staining (reactive oxygen species accumulation), germinating spores; format: cell-based; details: 50 μg/ml
Experimental: as §6
(§7) Fungal spore and hyphae were treated with 50 μg/ml peptide solution for 2 h and 16 h, respectively. Then the fungal cells were stained with 10 μM 2′,7′-dichlorodihydrofluorescein diacetate (H2DCFDA) in the dark for 60 min before observation under Leica DMIL florescent microscope equipped with a Chroma 41012 filter set. Sterile deionized water was used instead of peptide solution as a control.

B. elliptica = test: H2DCFDA staining (reactive oxygen species accumulation), non-germinating spores; format: cell-based, Botrytis elliptica; details: 50 μg/ml, 2 h
Experimental: as §6, §7

[5] = system: assayed microbes (bacterial and fungal species); format: cell-based
Experimental: The antibacterial and antifungal activities of these peptides were determined by measuring the inhibition rate of bacterial growth and fungal spore germination. Bacterial suspensions with an OD600 at 0.15 were treated with peptide solution for 90 min, then serially diluted and plated on LB media. After incubation for 20-24 h, the colony-forming units (CFUs) in each peptide-treated sample were quantified. The inhibition of bacterial growth (%)=[(CFUs in water treatment−CFUs in peptide treatment)/CFUs in water treatment]×100%. On the other hand, fungal spore suspensions of 1×10^5 spores/ml were treated with peptide solutions for 16-20 h, and then the spore germinations were examined under microscope. The germ tube greater than two times of spore length was considered germinated Inhibition of fungal spore germination (%)=[(Number of the spores germinating in water−Number of the spores germinating in peptide solution)/Number of the spores germinating in water]×100%. Sterile deionized water replaced the peptide solution as a control treatment. All assays were performed in triplicate. Based on the data, the concentrations of peptide for 50% growth inhibition (IC50) of each microbe were determined.
According to the IC50 values of LsGRP1^C on different bacterial and fungal species, the antimicrobial potency of LsGRP1^C was verified.

C. acutatum HL1 = format: cell-based, Colletotrichum acutatum; details: Inhibition of fungal spore germination at 5 × 10^4 spores/ml
Experimental: as §2, with “Fungal spores with a concentration of 1×10^5 spores/ml were treated with 2.5 mg/ml peptide for 16-20 h before the observation of spore germination under light microscope.” left out
as §5, §4

A. brassicicola = test: Disease suppression assay, cabbage black spot; format: in vivo, Alternaria brassicicola on cabbage leaves; details: 7 days after inoculation
Experimental: as §1
Fungal inoculation was two days (−2) or one day (−1) before treatment besides at same time of the treatment. Fungal inoculation was also performed two day (2) or one day (1) after treatment.

E. coli DH5α = format: cell-based, Escherichia coli; details: Inhibition of bacterial growth (OD600 = 0.15)
Experimental: as §2, §3, §4

B. cinerea = test: Disease suppression assay, gray mold; format: in vivo, Botrytis cinerea on strawberry and orchid flowers; details: different concentrations
Experimental: as §1
Synthetic LsGRP1^C solution (1 μl each) was dropped onto strawberry flowers, then mixed with 1 μl spore suspension of B. cinerea. […] LsGRP1^C solution (5 μl each) was dropped onto orchid flowers, then mixed with 5 μl spore suspension of B. cinerea.

B. subtilis 28-4 = format: cell-based, Bacillus subtilis; details: Inhibition of bacterial growth (OD600 = 0.15)
Experimental: as §2, §3, §4

assayed fungal species = test: Growth inhibition assay, fungal spore germination, statements on the assayed fungal species; format: cell-based
Experimental: as §2, §5, §4

[6] = system: spores and hyphae of A. brassicicola Ac1, B. cinerea B-134, B. elliptica B061 and C. acutatum HL1; test: Light microscopy of treated fungal spores and hyphae; format: cell-based; details: 50 μg/ml; spores 2 h, hyphae 16 h
C. gleosporioides MT1 = format: cell-based, Colletotrichum gleosporioides; details: 2.5 mg/ml peptide, 16-20 h, 1×10^5 spores/ml
Experimental: as §2, §5, §4

[7] = 2500 μg/ml peptide, 90 min, CFUs at 20-24 h
[8] = Inhibition of bacterial growth (OD600 = 0.15)

GRELAEETKENTEKRATEAGVADQKY [LsGRP1^N]
lesion development of bacterial leaf spot in tomato (P. syringae; 0.025 mg/ml): could inhibit lesion development | lesion development of bacterial leaf spot in tomato (P. syringae; 0.25 mg/ml): could inhibit lesion development | Inhibition of bacterial growth (X. campestris XCP3; [7]): 69.6% | IC50 (X. campestris XCP3; [8]): 32.19 µg/mL | IC50 (B. elliptica B061): 86.13 µg/mL | IC50 [1]: 20.63 µg/mL | DAPI staining, nuclear chromatin condensation [2]: nuclear chromatin condensation | Inhibition of bacterial growth (D. chrysanthemi TA1): over 98.5% | IC50 (A. brassicicola Ac1): 54.80 µg/mL | Inhibition of fungal spore germination (B. cinerea B-134; 2.5 mg/ml peptide, 16-20 h, 1×10^5 spores/ml): not affected | IC50 (B. cinerea B-134; Inhibition of fungal spore germination at 5 × 10^4 spores/ml): 58.26 µg/mL | Inhibition of bacterial growth on all assayed bacterial species ([3]; 2500 μg/ml, 90 min, CFUs at 20-24 h, all six species): more than 99.5% | IC50 on all assayed bacterial species except A. tumefaciens C58C^1 ([3]; summary bound of Table 1): lower than 32.19 μg/ml | Inhibition of bacterial growth (A. tumefaciens C58C^1; [7]): over 98.5% | IC50 (A. tumefaciens C58C^1; [8]): 71.79 µg/mL | ROS accumulation (H2DCFDA) in germinating spores [4]: visualized | ROS accumulation (H2DCFDA) in non-germinating spores (B. elliptica): present | IC50 on all assayed microbes [5]: below 86.13 μg/ml | IC50 (C. acutatum HL1): 17.39 µg/mL | suppression of lesion development of cabbage black spot (A. brassicicola; 0.025 mg/ml, fungal inoculation 2 days before treatment): did not occur | lesion development of cabbage black spot (A. brassicicola; 0.25 mg/ml, treatment at same time or 1-2 day before/after inoculation): could be inhibited | IC50 (E. coli DH5α): 9.67 µg/mL | lesion development of orchid gray mold (B. cinerea; orchid flowers, 9 days after inoculation): could be suppressed | lesion development of strawberry gray mold (B. cinerea; strawberry flowers, 3 days after inoculation): could be suppressed | IC50 (B. subtilis 28-4): 23.32 µg/mL | Inhibition of fungal spore germination, fungi other than B. elliptica B061 (assayed fungal species; 2.5 mg/ml peptide, 16-20 h, with the exception of B. elliptica B061): did not inhibit spore germination | IC50 on the assayed fungal species except B. elliptica (assayed fungal species; summary bound of Table 1): below 58.26 μg/ml | morphology of spores and hyphae under light microscope [6]: abnormal blebbing and shrinkage | Inhibition of fungal spore germination (C. gleosporioides MT1): not affected
